The values below come from a melting point compilation (Tetko et al.; mined from patent text by program, amines drawn as free bases though some values may be those of a salt).

As usually defined, the melting point is the temperature of the solid-liquid transition.

On to `CC1=C(C(=O)N(C)C)C(c2ccccc2Cl)c2c[nH]nc2N1` (stereo unspecified), for which the melting point came out at 229 °C.
`Cn1cc(C(=O)NCc2ccc(Cl)cc2)c(=O)c2cc(Br)oc21` registered a melting point of 232 to 233 °C.
`O=C(ON1C(=O)CCC1=O)c1ccc(-c2ccc(S(=O)(=O)N3CCCC(CO)C3)cc2)[nH]c1=O` (stereo unspecified) displayed a melting point of 201 to 204 °C.
The result for `Cc1ccc(N2CCN(c3c(C)c(C)c4c(c3C)CC(C)(C)O4)CC2)cc1C` reads 137 to 139 °C.
In turn, `Cc1cccc(C)c1N1CN(C)CN(C)C1=S` returned a melting point of 121 to 123 °C.
For `CCCN1CC(NC(=O)C(C)(C)C)CC2c3cccc4[nH]c(Br)c(c34)CC21` (stereo unspecified), the melting point fell in the range of 182 to 183 °C.
For the compound `CC(C)(O)C1(c2onc(-c3ccc(O)cc3)c2-c2ccccc2)CC1`, the melting point fell in the range of 212 to 213 °C.
In turn, `CC(C)(C)NS(=O)(=O)c1c(S)cccc1C(F)(F)F` returned a melting point of 139 °C.
The result for `CCCc1nc(N)nc(N)c1N1CCN(c2ccc(C(=O)N[C@@H](CCC(=O)O)C(=O)O)cc2)CC1` reads 280 to 284 °C; that for `Nc1ccc(NC(=O)Nc2cccc(C(F)(F)F)c2)c(O)c1`, 200 to 202 °C.
The result for `COC(CCCNC(=O)C=CC(=O)NCCCC(OC)OC)OC` reads 170 to 172 °C.
In turn, `CN1CCC(O)(c2ccccc2N)CC1` registered a melting point of 135 to 136 °C.
`O=C(O)CN1C(=O)C(O)N(Cc2cccc([N+](=O)[O-])c2)C1=O` (stereo unspecified) had a melting point of 123 to 125 °C.
In turn, `COCCOCOc1ccc(C(=O)c2nc3ccc(OCOCCOC)cc3s2)cc1` yielded a melting point of 46 °C.
On to `CC#CC(C)(C)NC(=O)C(CC)Oc1ccc2ncc(Br)cc2c1` (stereo unspecified), for which the melting point was 109 to 112 °C.
As for `COc1ccccc1CNc1nccc2ccccc12`, the melting point is 111 to 113 °C.
The result for `CC(C)(O)Cn1cnc2c(N)nc3c(c21)CCCC3` reads 260 to 261 °C.
In the case of `Nc1ccc(OS(=O)(=O)c2ccc(-n3ccnc3)cc2)cc1[N+](=O)[O-]`, the melting point turned out to be 209 °C.
As for `CCNC(=O)c1nc2n(n1)-c1ccc(Cl)cc1C(c1ccccc1F)=NC2`, the figure is 232 to 234 °C.
The result for `COc1nc(C)nc(NC(=O)NS(=O)(=O)c2c(C)cccc2OCCF)n1` reads 161 °C; that for `Nc1c(-c2ccc(Cl)cc2)nc2ccc(F)cc2c1C(=O)O`, 241 to 243 °C.
As to `Cc1c(CCC2CC(O)CC(=O)O2)c2c(c(C)c1OC(=O)c1ccccc1)CC(C)(C)O2` (stereo unspecified), the melting point fell in the range of 188 to 190 °C.
As for `Nc1cc2[nH]c(=O)oc2cc1NC(=O)C(=O)N1CCC(Cc2ccccc2)CC1`, the figure is 296 °C.
The result for `CC(=O)c1ccc(Oc2ccc(Cl)c3ccccc23)cc1` reads 95 to 99 °C; that for `Nc1c(Cl)cc(C(=O)NCCC23CCCN2CCC3)c2c1CCO2`, 124 °C; that for `CN1C(=O)CN=C(c2ccccc2F)c2cc(NC(=O)NCCO)ccc21`, 156 to 160 °C.
`COC(=O)c1ccc(Cl)c(C=O)c1SC` showed a melting point of 66.5 to 68.1 °C.
`Cc1ccnc2c1C(=O)CC(c1cc(F)ccc1F)C2` (stereo unspecified) showed a melting point of 75 to 76 °C.
As for `CCC(CC)(CC(=O)O)C(=O)O`, the figure is 106 to 109 °C.
In turn, `O=C1CN(c2ccc(CC3NC(=O)c4ccccc4NC3=O)cc2O)S(=O)(=O)N1` (stereo unspecified) came in with a melting point of 180 °C.
The compound `FC(F)(F)c1ccc(C=Cc2nc(CCl)cs2)cc1` yielded a melting point of 93 to 95 °C.
On to `Cc1cc2cccc(N=C3SC[C@@H]4Cc5ccccc5CN34)c2cn1`, for which the melting point is 156 °C.
The compound `CC(C)(C)c1ccc(CCC=O)cc1NC(=O)CC1c2ccccc2Oc2ccccc21` gave a melting point of 176 to 177 °C.
The result for `O=[N+]([O-])c1ccc(-c2ncnn2-c2ccccc2F)cc1` reads 143 to 145 °C.
The result for `Nc1cccc2c1C(=O)C1=C(CCCC1)C2=O` reads 189 to 191 °C; that for `O=C1c2ccccc2C(=O)N1OCC1COCOC1`, 98 to 106 °C.
`N#Cc1ccc(-c2cccc(-c3cn4cc(C#N)ccc4n3)c2)cc1`: the melting point was in the range of 290 to 292 °C.
The result for `CS(=O)(=O)c1ccc(-c2nc(C(F)(F)F)sc2-c2ccc(F)cc2)cc1` reads 150 to 151 °C; that for `Cc1ccc(C(=O)N(c2ccccc2)c2ccc(OCCN(C)C)cc2)cc1`, 74.5 to 77.5 °C.
As for `CCOC(=O)c1ccc(C#CC(O)c2cc(-c3ccccc3)cc3c2C(C)(C)CCC3(C)C)cc1` (stereo unspecified), the melting point worked out at 121 °C.
Turning to `Cc1nc2ccc(C(=O)O)[nH]c-2c1Cc1ccc(Cl)cc1Cl`, the melting point lay within 235 to 236 °C.
The compound `O=C(O)C=C(c1cccc(Cl)c1)c1cccc(Cl)c1` had a melting point of 114 to 115 °C.
With `Nc1ccc2nc3c(nc2c1)OCC1CCCCN31` (stereo unspecified), the melting point is 229 to 232 °C.
As for `O=C(CC1CCN(CCn2c(=O)[nH]c3ccccc32)CC1)c1ccc(F)cc1`, the figure is 181 °C; as for `Cc1ccccc1-c1nc(COc2cccc3cc(NS(=O)(=O)C(F)(F)F)ccc23)co1`, 127 to 130 °C.
Turning to `CCC(=O)NC(=O)CCCCBr`, the melting point fell in the range of 94 to 97 °C.
`CCOC(=O)Cn1cnc2ccccc21` yielded a melting point of 63 to 64 °C.
`N=C(N)COc1cccc(Cl)c1Cl` gave a melting point of 104 to 108 °C.
Compound `CCCCn1c(C)c(C(=O)c2ccccc2C(=O)O)c2ccccc21` registered a melting point of 88 to 92 °C.
`CC1(C)OC(=O)N=C1c1ccccc1`: the melting point was 106 to 108 °C.
In the case of `Cc1cc([N+](=O)[O-])c(Cl)c([N+](=O)[O-])c1C(=O)O`, the melting point fell in the range of 189 to 192 °C.
Regarding `COC(=O)c1ccc(OCCNC(=O)C2Cc3ccccc3N2S(=O)(=O)c2ccc(-c3cccc(C(F)(F)F)c3)cc2)c(F)c1` (stereo unspecified), the melting point was 65 to 70 °C.
For `COC(=O)c1ccc2c(=O)n(CC(C)C)c(CNC(=O)OC(C)(C)C)c(-c3ccc(Cl)cc3)c2c1`, the melting point fell in the range of 205 to 207 °C.
Consider `CCCc1cn(C(C)(C)C(=O)N(C)C)nc1-c1ccccc1Cl`, for which the melting point lay within 64 to 66 °C.
On to `Cc1cnc(N)c(=O)n1C`, for which the melting point lay within 217 to 219 °C.
The result for `CC(=O)SCCS(C)(=O)=O` reads 57 to 59 °C.
The compound `Cn1nc(-c2cc(C(=O)O)c(Cl)cc2F)c(C=O)c1C(F)(F)F` showed a melting point of 163 °C.
As for `OCCOc1cccc2cnccc12`, the figure is 64 to 67 °C; as for `CC(C)COC(=O)Oc1ccc2c(c1)OCN(CCO[N+](=O)[O-])C2=O`, 82 to 84 °C; as for `O=C1N(Cc2ccc(C(F)(F)F)o2)c2c(F)cccc2C12COc1cc3c(cc12)OCO3` (stereo unspecified), 116 to 118 °C.
On to `CN1CCNC1=C(Cl)[N+](=O)[O-]`, for which the melting point was 145 to 146 °C.
For `N#Cc1cc(-c2ccccc2)[nH]c1Sc1ccccc1N`, the melting point lay in the range of 159 to 160 °C.
In turn, `OC1CSC(Sc2cc(C(F)(F)F)cc(C(F)(F)F)c2)C(O)C1O` (stereo unspecified) came in with a melting point of 157 to 158 °C.
`CP(C)(=O)C(O)C(=O)OCC(=O)c1ccccc1` (stereo unspecified) yielded a melting point of 147 °C.
The result for `Cc1nc2c(OCc3ccccc3)cc(C(=O)N(C)C)cc2n1C` reads 159 to 160 °C; that for `CC(=O)OCc1c(C(=O)C(=O)O)c2cc(-c3ccc(OC(F)(F)F)cc3)ccc2n1Cc1ccc(C)cc1`, 79 to 80 °C.
